Test results from patent publication US12195467B2, “Compound having TrkA inhibitory activity and pharmaceutical composition, for preventing or alleviating pain, containing same as active ingredient” (JBKLAB CO., LTD., priority 2018, dated 2025).

What was measured:
TrkC = molecular target: T1, TrkC (Homo sapiens, UniProt Q16288); assay: PathHunter eXpress TrkC functional assay kit (U2OS cells, agonist NT-3); assay type: cell-based; conditions: for inhibition at 1 µM: compound 1 μM, read-out: TrkC % inhibition rate (based on 1 μM)
T1 construct: host or cells: U2OS
Procedure: (§1) The inhibitory activity of the example compounds against TrkB and TrkC was evaluated using PathHunter® eXpress TrkB or TrkC functional assay kit (Product Code: 93-0463E3 and 93-0464E3) of DiscoverX. The test was carried out according to the analysis method provided by the manufacturer. The test was carried out as follows over 2 or 3 days depending on the conditions of cells.
(§2) 1. Before starting the experiment, the cell plating (CP) reagent stored at −80° C. was dissolved in a 37° C. water bath.
(§3) 2. When the CP reagent was dissolved, cell vials for TrkB or TrkC were prepared to be dissolved.
(§4) 3. Two U2OS cell vials (TrkB kit & TrkC kit) stored in liquid nitrogen were thawed.
(§5) 4. 500 μL of CP reagent was added to the thawed cell vial, and the cells were sufficiently mixed by pipetting and transferred to a Conical tube in which 11.5 mL of CP reagent was dispensed.
(§6) 5. 12 mL cells (1×10^6 cells in CP reagent) were seeded on a 96-well tissue culture treated plate (100 μL/well), followed by culture in a 37° C., 5% CO2 humidified incubator for 24 hours or 48 hours.
(§7) Day 2 or Day 3: Treatment of Test Material
(§8) 1. Test material, agonist and antagonist were prepared as stock solutions according to the experiment design. • Test material: 10 mM Stock solution in DMSO • Antagonist (GNF-5837): 10 mM Stock solution in 1.8674 mL DMSO • Agonist: TrkB agonist→BDNF, TrkC agonist→NT-3
(§9) 2. 10 mM stock solutions of teat material and antagonist having the concentration of 22 times more concentrated than the final screening concentration were prepared according to the experiment design.
(§10) 3. Each well of the 96-well culture plate containing cells was treated with 5 μL of the solutions of teat material and antagonist having the concentration of 22 times more concentrated than the final screening concentration (#2), followed by incubation at 37° C. for 60 minutes.
(§11) 4. During the incubation, 10 μg/mL stock solution of each agonist for TrkB and TrkC was prepared using a reconstitution buffer for the purpose of the experiment, and each well of the plate was treated with 5 μL of the prepared solution, followed by incubation at 19-25° C. for 3 hours.
(§12) 5. During the incubation, a detection reagent working solution (4.75 ml Cell assay buffer, 1.25 ml Substrate Reagent 1, 0.25 ml Substrate Reagent 2) was prepared. Upon completion of the incubation, 55 μL of the working solution was added into each well of the plate.
(§13) 7. The plate was incubated at room temperature for 60 minutes in a dark place, and the […] was measured with a luminescence plate reader.

TrkB = molecular target: T2, TrkB (Homo sapiens, UniProt Q16620); assay: PathHunter eXpress TrkB functional assay kit (U2OS cells, agonist BDNF); assay type: cell-based; conditions: compound 1 μM, read-out: TrkB % inhibition rate (based on 1 μM)
T2 construct: host or cells: U2OS
Procedure: as §1, §2, §3, §4, §5, §6, §7, §8, §9, §10, §11, §12, §13

[1] = test system: postoperative pain animal model; assay: Pharmacological activity in postoperative pain model (von-Frey mechanical allodynia, 50% withdrawal threshold); assay type: in vivo, Sprague-Dawley male rats; conditions: oral, rat postoperative pain model, 2 days after surgery; for ED50: 48 h, read-out: ED50
Procedure: Sprague-Dawley male rats weighing around 150 g (Orient bio., Korea) were used. Rats were raised in an environment where a 12-hour light-dark cycle was maintained, 4 per transparent plastic cage covered with scob as bedding. Food and water were provided freely. To verify the analgesic effect of the example compounds, all rats were anesthetized with O2 delivered from the induction chamber at a ratio of 3:3 of isoflurane and operated. Anesthetized rats were placed on a 37° C. warm plate to prevent hypothermia during the operation. The ipsilateral sole (left) of the hind paw of the experimental animal was disinfected with 10% povidone-iodine solution, and incised to a length of 1 cm with a #11 surgical knife. The incision was made starting from 0.5 cm of the proximal edge of the heel through the skin and fascia on the side of the ipsilateral sole toward the toe. After the incision, a gentle pressure was applied to the incision site to stop the bleeding and the skin was sutured. The surgical site was sterilized with 10% povidone-iodine solution, and gentamicin (8 mg/kg) was administered intraperitoneally to prevent infection. The analgesic effect of the compound on postoperative pain was evaluated in the experimental animals 2 days after the surgery. […] The formula for calculating the 50% withdrawal threshold (g) is as follows. 50% Withdrawal threshold (g)=(10^(x+kd))/10^4 [Mathematical Formula 1] • x=the value of the last tested filament (log unit value). • k=the value indicating positive/negative reaction by up-down method. • d=the value fixed at 0.224 as the average difference between stimuli.

TrkA = molecular target: T3, TrkA (Homo sapiens, UniProt P04629); assay: TrkA inhibitory activity, CycLex TrkA kinase assay/inhibitor screening kit; assay type: biochemical; conditions: for inhibition at 1 µM: compound 1 μM, read-out: % inhibition rate (based on 1 μM)
T3 construct: purchased MBL International (CycLex) CY-1091
Procedure: The TrkA inhibitory activity of the compounds was evaluated using CycLex® TrkA kinase assay/inhibitor screening kit of MBL International (Cat No. CY-1091). The test was carried out according to the analysis method provided by the manufacturer. The test method is as follows.
1. 1× wash buffer was prepared by diluting 10× wash buffer in ddH2O.
2. 20×ATP solution (1.25 mM) was prepared by adding 1.6 mL of distilled water to the tube containing ATP dissolved in NA2 salt and freeze-dried.
4. A working solution mixture and a solution of the appropriate concentration of the example compound to evaluate the activity of the example compound were prepared and dispensed into a 96-well plate as shown in table below.
5. After dispensing the solutions into a 96-well plate, the plate was incubated at 30° C. for 30 minutes.
6. After incubation of the plate at 30° C. for 30 minutes, 200 μL of 1× wash buffer was added into each well of the plate, followed by washing. This process was repeated 5 times.
7. After washing the plate, 100 μL of HRP conjugated detection antibody (PX-39) was added into each well of the plate, followed by reaction at room temperature for 60 minutes.
8. Upon completion of the reaction, 200 μL of 1× wash buffer was added into each well of the plate, followed by washing. This process was repeated 5 times.
9. After washing the plate, 100 μL of substrate reagent containing chromogenic substrate and tetra-methylbenzidine (TMB) was added into each well of the plate, followed by incubation at room temperature for 5-15 minutes.
10. Upon completion of the reaction, 100 μL of stop solution (1 N H2SO4) was added into each well of the plate, followed by measuring OD450 within 30 minutes.

T1 sequence (Q16288 32-839): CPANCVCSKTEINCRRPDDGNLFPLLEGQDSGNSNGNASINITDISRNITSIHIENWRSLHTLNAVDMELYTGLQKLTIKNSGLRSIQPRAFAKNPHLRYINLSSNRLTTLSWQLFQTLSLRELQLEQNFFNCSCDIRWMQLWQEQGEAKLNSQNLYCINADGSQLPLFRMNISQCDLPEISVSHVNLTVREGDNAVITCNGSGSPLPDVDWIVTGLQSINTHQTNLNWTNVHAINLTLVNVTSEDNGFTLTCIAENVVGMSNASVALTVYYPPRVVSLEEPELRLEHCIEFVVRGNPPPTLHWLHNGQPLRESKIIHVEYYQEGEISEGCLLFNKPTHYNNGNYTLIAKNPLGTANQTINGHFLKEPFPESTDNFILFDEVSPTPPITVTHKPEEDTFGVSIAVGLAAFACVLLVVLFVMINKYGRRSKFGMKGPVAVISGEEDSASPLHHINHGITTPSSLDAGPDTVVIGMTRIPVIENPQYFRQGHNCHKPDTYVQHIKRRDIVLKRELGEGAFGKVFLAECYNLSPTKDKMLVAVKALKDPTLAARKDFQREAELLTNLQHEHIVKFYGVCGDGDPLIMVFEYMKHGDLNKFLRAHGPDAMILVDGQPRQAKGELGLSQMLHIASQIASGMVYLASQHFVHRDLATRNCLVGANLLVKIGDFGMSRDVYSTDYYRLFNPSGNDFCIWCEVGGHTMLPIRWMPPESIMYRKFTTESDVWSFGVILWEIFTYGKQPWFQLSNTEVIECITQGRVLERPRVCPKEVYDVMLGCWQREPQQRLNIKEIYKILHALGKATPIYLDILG
T2 sequence (Q16620 32-822): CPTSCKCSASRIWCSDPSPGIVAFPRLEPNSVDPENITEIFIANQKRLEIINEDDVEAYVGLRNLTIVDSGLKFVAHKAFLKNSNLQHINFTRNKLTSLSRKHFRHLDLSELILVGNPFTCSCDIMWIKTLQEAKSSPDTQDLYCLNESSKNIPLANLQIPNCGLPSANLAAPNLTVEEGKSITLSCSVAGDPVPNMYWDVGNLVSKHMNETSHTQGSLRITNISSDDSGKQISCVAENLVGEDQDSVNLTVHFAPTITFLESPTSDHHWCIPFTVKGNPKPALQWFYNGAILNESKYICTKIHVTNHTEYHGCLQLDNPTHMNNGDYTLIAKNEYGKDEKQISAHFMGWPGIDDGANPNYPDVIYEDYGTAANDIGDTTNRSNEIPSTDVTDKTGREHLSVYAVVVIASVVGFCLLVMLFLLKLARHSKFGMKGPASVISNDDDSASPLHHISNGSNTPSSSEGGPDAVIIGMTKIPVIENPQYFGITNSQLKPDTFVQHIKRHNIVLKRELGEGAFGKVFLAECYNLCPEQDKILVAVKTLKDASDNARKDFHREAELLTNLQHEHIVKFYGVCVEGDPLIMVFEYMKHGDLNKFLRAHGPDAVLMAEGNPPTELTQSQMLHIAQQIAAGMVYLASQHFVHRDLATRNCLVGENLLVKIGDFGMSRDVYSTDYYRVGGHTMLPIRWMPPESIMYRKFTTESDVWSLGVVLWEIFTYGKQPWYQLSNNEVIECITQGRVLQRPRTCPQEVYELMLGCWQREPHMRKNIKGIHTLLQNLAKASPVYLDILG
T3 sequence (P04629 33-796): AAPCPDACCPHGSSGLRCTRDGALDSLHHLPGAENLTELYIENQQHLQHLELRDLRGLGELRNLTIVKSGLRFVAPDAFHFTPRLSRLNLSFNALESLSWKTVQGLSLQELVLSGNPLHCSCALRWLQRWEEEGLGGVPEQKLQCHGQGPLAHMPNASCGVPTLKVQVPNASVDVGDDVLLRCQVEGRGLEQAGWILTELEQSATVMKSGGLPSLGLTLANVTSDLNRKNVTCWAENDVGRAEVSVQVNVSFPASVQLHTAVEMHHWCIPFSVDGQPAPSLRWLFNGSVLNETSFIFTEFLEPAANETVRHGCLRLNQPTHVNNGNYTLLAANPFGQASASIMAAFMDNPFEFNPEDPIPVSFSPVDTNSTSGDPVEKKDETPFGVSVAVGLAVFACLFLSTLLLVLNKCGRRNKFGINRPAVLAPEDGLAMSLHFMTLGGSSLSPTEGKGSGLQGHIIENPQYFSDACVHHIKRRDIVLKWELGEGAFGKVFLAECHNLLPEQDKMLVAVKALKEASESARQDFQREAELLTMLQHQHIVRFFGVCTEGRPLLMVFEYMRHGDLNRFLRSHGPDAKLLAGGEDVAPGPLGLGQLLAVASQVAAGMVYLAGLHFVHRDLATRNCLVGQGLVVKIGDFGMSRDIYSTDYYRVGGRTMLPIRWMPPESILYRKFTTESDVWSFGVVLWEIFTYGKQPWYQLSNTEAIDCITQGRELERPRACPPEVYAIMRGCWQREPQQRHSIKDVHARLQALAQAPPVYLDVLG

Oc1c(Cl)cc(-c2c[nH]c3ncnc(-c4cnn(C5CCNCC5)c4)c23)cc1Cl [Example 15, 2,6-dichloro-4-(4-(1-(piperidine-4-yl)-1H-pyrazole-4-yl)-7H-pyrrolo[2,3-d]pyrimidine-5-yl)phenol]
inhibition at 1 µM (TrkC): -16%
inhibition at 1 µM (TrkB): 4%
ED50 [1]: 20.1 mg/kg
Maximum duration of drug efficacy [1]: 0.5 h
inhibition at 1 µM (TrkA): 95%

CN1CCN(c2ccc(C(=O)Nc3n[nH]c4ncc(-c5ccncc5)cc34)cc2)CC1 [Example 13, 4-(4-methylpiperazine-1-yl)-N-(5-(pyridine-4-yl)-1H-pyrazolo[3,4-b]pyridine-3-yl)benzamide]
inhibition at 1 µM (TrkC): 0%
inhibition at 1 µM (TrkB): -1%
ED50 [1]: 11.5 mg/kg
Maximum duration of drug efficacy [1]: 1.0 h
IC50 (TrkA): 179 nM
inhibition at 1 µM (TrkA): 99%

CN1CCN(c2ccc(C(=O)Nc3n[nH]c4ncc(Br)cc34)cc2)CC1 [Example 14, N-(5-bromo-1H-pyrazolo[3,4-b]pyridine-3-yl)-4-(4-methylpiperazine-1-yl)benzamide]
inhibition at 1 µM (TrkC): -20%
inhibition at 1 µM (TrkB): -8%
ED50 [1]: 3.8 mg/kg
Maximum duration of drug efficacy [1]: 0.5 h
IC50 (TrkA): 122 nM
inhibition at 1 µM (TrkA): 101%

CN1CCN(c2ccc(C(=O)Nc3n[nH]c4ncc(-c5ccccc5)cc34)cc2)CC1 [Example 10, 4-(4-methylpiperazine-1-yl)-N-(5-phenyl-1H-pyrazolo[3,4-b]pyridine-3-yl)benzamide]
IC50 (TrkC): 1070 nM
inhibition at 1 µM (TrkC): 49%
inhibition at 1 µM (TrkB): 27%
ED50 [1]: 3.8 mg/kg
Maximum duration of drug efficacy [1]: 0.5 h
IC50 (TrkA): 213 nM
inhibition at 1 µM (TrkA): 98%
